The text below walks through data of publication PMC8043142 (Journal of medicinal chemistry, 2021).

Molecules are shown by their SMILES. Where only a bound is given, the exact number is not on record here.

The target in series [1] is disulfide stabilized HIV-1NL4-3 CA hexamer (Human immunodeficiency virus type 1 group M subtype B, UniProt P12493, A146C/E177C/M317A/W316A). Put plainly: SPR direct interaction analysis with immobilized CA hexamer. The format is binding. As to conditions: for kd: SPR, 25 °C, 1:1 binding model.
The test system of series [2] is HIV-1 pseudoviruses.
Series [3] can be described thus: Metabolic stability in human liver microsomes. The note with it: half-life relative to S-PF-74. On the technique in general: Microsomes from liver hold many membrane-bound enzymes, among them those of drug oxidation.
Setting [4] is: enantiomerically pure compounds.

Take `CN(C(=O)[C@H](Cc1ccccc1)NC(=O)Cc1n[nH]c2c(N)cccc12)c1ccc2[nH]ncc2c1` [S-CX17, (S)-2-(2-(7-amino-1H-indazol-3-yl)acetamido)-N-(1H-indazol-5-yl)-N-methyl-3-phenylpropanamide]: in series [1] (setting [4]), the “binding to CA hexamer via SPR (in words)” value is recorded as “robust binding” and the kd is recorded as 9.66 ± 0.145 × 10^−2 s^−1. Further, the “change of antiviral potency relative to parental compound” value in series [2] (slightly diminished potency) is recorded as about 3.5 fold. Further, the “Fold Increase (over S-PF-74)” value in series [3] worked out at 204 fold.

Take `Cc1[nH]c2ccccc2c1CC(=O)N[C@H](Cc1ccccc1)C(=O)N(C)c1ccc2[nH]ncc2c1` [R-CX16, (R)-N-(1H-Indazol-5-yl)-N-methyl-2-(2-(2-methyl-1H-indol-3-yl)acetamido)-3-phenylpropanamide]: in series [1] (setting [4]), the “binding to CA hexamer via SPR (in words)” value was “little to no binding interactions”.

On to `Cc1[nH]c2ccccc2c1CC(=O)NC(Cc1ccccc1)C(=O)N(C)c1ccccc1` (centres unmarked) [PF-74, reference compound], for which the kd in series [1] (racemic compounds) is reported as 2.93 ± 0.182 × 10^−2 s^−1.

Regarding `Cc1[nH]c2ccccc2c1CC(=O)NC(Cc1ccccc1)C(=O)N(C)c1ccc2[nH]ncc2c1` (centres unmarked) [CX16, N-(1H-indazol-5-yl)-N-methyl-2-(2-(2-methyl-1H-indol-3-yl)acetamido)-3-phenylpropanamide], the kd in series [1] (racemic compounds) is 1.21 ± 0.037 × 10^−2 s^−1.

For the compound `CN(C(=O)[C@H](Cc1ccccc1)NC(=O)Cc1c[nH]c2c(N)cccc12)c1ccccc1` [S-CX15, (S)-2-(2-(7-Amino-1H-indol-3-yl)acetamido)-N-methyl-N,3-diphenylpropanamide], in series [1] (setting [4]), the “binding to CA hexamer via SPR (in words)” value is “robust binding” and the kd is reported as 6.60 ± 0.328 × 10^−2 s^−1. The “Fold Increase (over S-PF-74)” value in series [3] is reported as 30.8 fold.

For the compound `Cc1[nH]c2ccccc2c1CC(=O)N[C@H](Cc1ccccc1)C(=O)N(C)c1ccccc1` [R-PF-74, (R)-N-methyl-2-(2-(2-methyl-1H-indol-3-yl)acetamido)-N,3-diphenylpropanamide, reference compound], the “binding to CA hexamer via SPR (in words)” value in series [1] (setting [4]) is recorded as “little to no binding interactions”.

On to `Cc1[nH]c2ccccc2c1CC(=O)N[C@@H](Cc1ccccc1)C(=O)N(C)c1ccc2[nH]ncc2c1` [S-CX16, (S)-N-(1H-Indazol-5-yl)-N-methyl-2-(2-(2-methyl-1H-indol-3-yl)acetamido)-3-phenylpropanamide], for which, in series [1] (setting [4]), the “binding to CA hexamer via SPR (in words)” value is recorded as “robust binding”, the “improvement in affinity over S-PF-74” value is on record as over 2 fold and the kd was 1.09 ± 0.043 × 10^−2 s^−1. Also, the “Fold Increase (over S-PF-74)” value in series [3] came to 2.0 fold.

For `CN(C(=O)C(Cc1ccccc1)NC(=O)Cc1n[nH]c2c(N)cccc12)c1ccc2[nH]ncc2c1` (centres unmarked) [CX17, 2-(2-(7-amino-1H-indazol-3-yl)acetamido)-N-(1H-indazol-5-yl)-N-methyl-3-phenylpropanamide], the “IC50 relative to predicted and experimentally determined affinity” value in series [2] (racemic compound, IC50 higher than affinity) was “approximately 5 fold”.

With `CN(C(=O)[C@@H](Cc1ccccc1)NC(=O)Cc1c[nH]c2c(N)cccc12)c1ccccc1` [R-CX15, (R)-2-(2-(7-Amino-1H-indol-3-yl)acetamido)-N-methyl-N,3-diphenylpropanamide], the “binding to CA hexamer via SPR (in words)” value in series [1] (setting [4]) is “little to no binding interactions”.

Regarding `CN(C(=O)[C@@H](Cc1ccccc1)NC(=O)Cc1n[nH]c2c(N)cccc12)c1ccc2[nH]ncc2c1` [R-CX17, (R)-2-(2-(7-amino-1H-indazol-3-yl)acetamido)-N-(1H-indazol-5-yl)-N-methyl-3-phenylpropanamide], the “binding to CA hexamer via SPR (in words)” value in series [1] (setting [4]) was “little to no binding interactions”.

As for `Cc1[nH]c2ccccc2c1CC(=O)N[C@@H](Cc1ccccc1)C(=O)N(C)c1ccccc1` [S-PF-74, (S)-N-methyl-2-(2-(2-methyl-1H-indol-3-yl)acetamido)-N,3-diphenylpropanamide, reference compound], in series [1] (setting [4]), the “binding to CA hexamer via SPR (in words)” value is “robust binding” and the kd is 2.92 ± 0.111 × 10^−2 s^−1.
